For orientation: melting point means the temperature, or range, at which the solid turns liquid. As usually defined, the inhibition is the change of the read-out against control, counted positive when it falls.

Some results are limits rather than exact numbers.

One data set concerns SF-295. Briefly: NCI 60 cell line single dose screen (SRB). The class given is cell-based. As to conditions: Homo sapiens; SF-295 (CNS cancer), single dose 10^−5 M, 48 h; read-out: Growth inhibition percentage. In short, it runs like this:
(§1)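 Cells were plated and grown 24 h at 37 °C, 5% CO2 before compound addition from DMSO stock, then exposed 48 h. Adherent cells were fixed with cold TCA (final 10%) and suspension cells with 16% TCA. SRB-stained protein was read at 515 nm and percent growth was calculated against time-zero and untreated plates.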

For a further data set, the system named is HCC-2998. Briefly: NCI 60 cell line single dose screen (SRB). Format: cell-based. As to conditions: Homo sapiens; HCC-2998 (colon cancer), single dose 10^−5 M, 48 h; read-out: Growth inhibition percentage. In short, it runs like this: as §1
The next data set relates to OVCAR-8. Briefly: NCI 60 cell line single dose screen (SRB). As to conditions: Homo sapiens; OVCAR-8 (ovarian cancer), single dose 10^−5 M, 48 h; read-out: Growth inhibition percentage. Format: cell-based. An outline of the steps:
as §1

The next data set relates to MDA-MB-468. Briefly: NCI 60 cell line single dose screen (SRB). The class given is cell-based. As to conditions: Homo sapiens; MDA-MB-468 (breast cancer), single dose 10^−5 M, 48 h; read-out: Growth inhibition percentage. In short, it runs like this:
as §1

The test system of a further data set is KM12. Briefly: NCI 60 cell line single dose screen (SRB). The class given is cell-based. Particulars: Homo sapiens; KM12 (colon cancer), single dose 10^−5 M, 48 h; read-out: Growth inhibition percentage. An outline of the steps: as §1
In the next data set the test system is U251. Briefly: NCI 60 cell line single dose screen (SRB). Format: cell-based. As to conditions: Homo sapiens, U-251; U251 (CNS cancer), single dose 10^−5 M, 48 h; read-out: Growth inhibition percentage. In short, it runs like this:
as §1

The test system of a further data set is RXF 393. Briefly: NCI 60 cell line single dose screen (SRB). As to conditions: Homo sapiens; RXF 393 (renal cancer), single dose 10^−5 M, 48 h; read-out: Growth inhibition percentage. Format: cell-based. In short, it runs like this: as §1
A further data set relates to NCI/ADR-RES. Briefly: NCI 60 cell line single dose screen (SRB). Format: cell-based. As to conditions: Homo sapiens; NCI/ADR-RES (ovarian cancer), single dose 10^−5 M, 48 h; read-out: Growth inhibition percentage. In short, it runs like this:
as §1

The next data set deals with SN12C. Briefly: NCI 60 cell line single dose screen (SRB). Format: cell-based. Particulars: Homo sapiens; SN12C (renal cancer), single dose 10^−5 M, 48 h; read-out: Growth inhibition percentage. In short, it runs like this:
as §1

A further data set has as its system NCI-H460. Briefly: NCI 60 cell line single dose screen (SRB). The class given is cell-based. As to conditions: Homo sapiens; NCI-H460 (non-small cell lung cancer), single dose 10^−5 M, 48 h; read-out: Growth inhibition percentage. In short, it runs like this:
as §1

For another data set, the system named is BT-549. Briefly: NCI 60 cell line single dose screen (SRB). Format: cell-based. Particulars: Homo sapiens; BT-549 (breast cancer), single dose 10^−5 M, 48 h; read-out: Growth inhibition percentage. In short, it runs like this: as §1
The next data set concerns COLO 205. Briefly: NCI 60 cell line single dose screen (SRB). Format: cell-based. Particulars: Homo sapiens, COLO 205, 48 h; read-out: Growth inhibition percentage. An outline of the steps: as §1
For another data set, the system named is HOP-62. Briefly: NCI 60 cell line single dose screen (SRB). The class given is cell-based. As to conditions: Homo sapiens; HOP-62 (non-small cell lung cancer), single dose 10^−5 M, 48 h; read-out: Growth inhibition percentage. An outline of the steps:
as §1

Another data set relates to TK-10. Briefly: NCI 60 cell line single dose screen (SRB). The class given is cell-based. Particulars: Homo sapiens; TK-10 (renal cancer), single dose 10^−5 M, 48 h; read-out: Growth inhibition percentage. An outline of the steps: as §1
Another data set concerns IGROV1. Briefly: NCI 60 cell line single dose screen (SRB). The class given is cell-based. Particulars: Homo sapiens, IGROV-1; IGROV1 (ovarian cancer), single dose 10^−5 M, 48 h; read-out: Growth inhibition percentage. In short, it runs like this:
as §1

In another data set the test system is HCT-15. Briefly: NCI 60 cell line single dose screen (SRB). The class given is cell-based. Particulars: Homo sapiens; HCT-15 (colon cancer), single dose 10^−5 M, 48 h; read-out: Growth inhibition percentage. An outline of the steps:
as §1

`Cc1nn(-c2ccc(F)cc2)c2nc(N)nc(N)c12` [Compound 5, 1–(4-Fluorophenyl)-3-methyl-1H-pyrazolo[3,4-d]pyrimidine-4,6-diamine] came in with a melting point greater than 300 °C. Further, the inhibition at 10 µM in the data set on SF-295 was -1.89%. The inhibition at 10 µM with HCC-2998 stood at 3.79%. Besides, the inhibition at 10 µM in the data set on OVCAR-8 was -7.15%. For the same compound, in the data set on MDA-MB-468, the inhibition at 10 µM was -15.5%. Further, the inhibition at 10 µM in the data set with KM12 came out at 1.24%. In addition, the inhibition at 10 µM in the data set with U251 is -6.63%. In addition, in the data set with RXF 393, the inhibition at 10 µM was -13%. For the same compound, in the data set on NCI/ADR-RES, the inhibition at 10 µM is -3.45%. For the same compound, the inhibition at 10 µM with SN12C was -2.74%. Also, the inhibition at 10 µM in the data set on NCI-H460 is -18.8%. For the same compound, the inhibition at 10 µM with BT-549 is -17.4%. In addition, in the data set on COLO 205, the inhibition at 10 µM was -13.5%. Moreover, the inhibition at 10 µM in the data set on HOP-62 was -8.35%. The inhibition at 10 µM in the data set with TK-10 is -13%. In addition, the inhibition at 10 µM in the data set on IGROV1 is 6.71%. For the same compound, the inhibition at 10 µM with HCT-15 was -3.69%.
Consider `Cc1nn(-c2ccc(F)cc2)c2ncnc(NN)c12` [Compound 9, 1–(4-Fluorophenyl)-4-hydrazinyl-3-methyl-1H-pyrazolo[3,4-d]-pyrimidine], for which the melting point lay in the range of 208 to 210 °C. Moreover, the inhibition at 10 µM with SF-295 is -3.92%. In addition, in the data set on HCC-2998, the inhibition at 10 µM turned out to be 5.1%. For the same compound, the inhibition at 10 µM with OVCAR-8 is 1.29%. Also, in the data set with MDA-MB-468, the inhibition at 10 µM amounted to 18.5%. In addition, in the data set on KM12, the inhibition at 10 µM worked out at 3.79%. Moreover, the inhibition at 10 µM with U251 amounted to 9.85%. Also, the inhibition at 10 µM with RXF 393 was found to be 5.47%. Besides, the inhibition at 10 µM in the data set with NCI/ADR-RES was 3.79%. Further, the inhibition at 10 µM in the data set on SN12C came to 8.3%. Further, the inhibition at 10 µM with NCI-H460 was -11.7%. Further, the inhibition at 10 µM in the data set with BT-549 is -10.8%. Further, the inhibition at 10 µM in the data set with COLO 205 is -11.7%. In the data set on HOP-62, the inhibition at 10 µM came out at 4.27%. Also, the inhibition at 10 µM in the data set on TK-10 was -51.2%. Moreover, the inhibition at 10 µM in the data set with IGROV1 turned out to be 23.5%. For the same compound, in the data set on HCT-15, the inhibition at 10 µM was -5.82%.
`Cc1nn(-c2ccc(F)cc2)c2nc[nH]c(=O)c12` [Compound 3, 1–(4-Fluorophenyl)-3-methyl-1H-pyrazolo[3,4-d]pyrimidin-4(5H)-one] yielded a melting point greater than 300 °C. In the data set with SF-295, the inhibition at 10 µM was -4.14%. Further, the inhibition at 10 µM in the data set on HCC-2998 is -2.16%. Besides, the inhibition at 10 µM in the data set on OVCAR-8 is -0.16%. The inhibition at 10 µM in the data set on MDA-MB-468 was -11.5%. For the same compound, the inhibition at 10 µM in the data set on KM12 was 1.48%. In addition, in the data set with U251, the inhibition at 10 µM is -1.7%. Besides, in the data set on RXF 393, the inhibition at 10 µM was -11.4%. Moreover, in the data set with NCI/ADR-RES, the inhibition at 10 µM was -1.22%. Besides, the inhibition at 10 µM with SN12C is -2.5%. Further, the inhibition at 10 µM in the data set on NCI-H460 was -9.62%. Besides, in the data set on BT-549, the inhibition at 10 µM was -3.59%. In addition, the inhibition at 10 µM with COLO 205 is -14.9%. In the data set with HOP-62, the inhibition at 10 µM was -6.53%. Further, the inhibition at 10 µM with TK-10 is -3.17%. Further, in the data set on IGROV1, the inhibition at 10 µM came out at 5.29%. Besides, in the data set with HCT-15, the inhibition at 10 µM was -6.88%.
`Cc1nn(-c2ccc(F)cc2)c2ncnc(N3CCN(c4ccc(Cl)cc4)CC3)c12` [Compound 8c, 4–(4-(4-Chlorophenyl)piperazin-1-yl)-1–(4-fluorophenyl)-3-methyl-1H-pyrazolo[3,4-d]pyrimidine]: the melting point fell in the range of 167 to 169 °C. Moreover, the inhibition at 10 µM in the data set with SF-295 was -0.93%. In the data set with HCC-2998, the inhibition at 10 µM stood at 3.74%. Also, the inhibition at 10 µM with OVCAR-8 amounted to 3.66%. Further, the inhibition at 10 µM with MDA-MB-468 is -3.83%. Moreover, the inhibition at 10 µM in the data set with KM12 worked out at 2.24%. Further, in the data set with U251, the inhibition at 10 µM was -0.06%. Also, in the data set on RXF 393, the inhibition at 10 µM was -16.5%. The inhibition at 10 µM in the data set with NCI/ADR-RES came to 6.62%. The inhibition at 10 µM with SN12C stood at 13.3%. In the data set on NCI-H460, the inhibition at 10 µM is -4.35%. Moreover, the inhibition at 10 µM with BT-549 is -4.23%. Besides, the inhibition at 10 µM in the data set on COLO 205 was -1.97%. Moreover, the inhibition at 10 µM in the data set on HOP-62 amounted to 4.05%. In addition, the inhibition at 10 µM in the data set on TK-10 was -30.9%. Besides, the inhibition at 10 µM in the data set on IGROV1 worked out at 25.6%. Moreover, the inhibition at 10 µM with HCT-15 is -8.49%.

Source of the values: PMC6352943, “Novel pyrazolo[3,4-d]pyrimidines: design, synthesis, anticancer activity, dual EGFR/ErbB2 receptor tyrosine kinases inhibitory activity, effects on cell cycle profile and caspase-3-mediated apoptosis” (Journal of Enzyme Inhibition and Medicinal Chemistry, 2019).
